The values below come from patent publication US20210395239A1 (Hoffmann-La Roche Inc., priority 2018, published 2021).

This assay has as its target T1, human TLR7 (Homo sapiens, UniProt Q9NYK1).
T1 construct: host or cells: HEK293 (HEK-Blue hTLR7)
T1 sequence (Q9NYK1 27-1049): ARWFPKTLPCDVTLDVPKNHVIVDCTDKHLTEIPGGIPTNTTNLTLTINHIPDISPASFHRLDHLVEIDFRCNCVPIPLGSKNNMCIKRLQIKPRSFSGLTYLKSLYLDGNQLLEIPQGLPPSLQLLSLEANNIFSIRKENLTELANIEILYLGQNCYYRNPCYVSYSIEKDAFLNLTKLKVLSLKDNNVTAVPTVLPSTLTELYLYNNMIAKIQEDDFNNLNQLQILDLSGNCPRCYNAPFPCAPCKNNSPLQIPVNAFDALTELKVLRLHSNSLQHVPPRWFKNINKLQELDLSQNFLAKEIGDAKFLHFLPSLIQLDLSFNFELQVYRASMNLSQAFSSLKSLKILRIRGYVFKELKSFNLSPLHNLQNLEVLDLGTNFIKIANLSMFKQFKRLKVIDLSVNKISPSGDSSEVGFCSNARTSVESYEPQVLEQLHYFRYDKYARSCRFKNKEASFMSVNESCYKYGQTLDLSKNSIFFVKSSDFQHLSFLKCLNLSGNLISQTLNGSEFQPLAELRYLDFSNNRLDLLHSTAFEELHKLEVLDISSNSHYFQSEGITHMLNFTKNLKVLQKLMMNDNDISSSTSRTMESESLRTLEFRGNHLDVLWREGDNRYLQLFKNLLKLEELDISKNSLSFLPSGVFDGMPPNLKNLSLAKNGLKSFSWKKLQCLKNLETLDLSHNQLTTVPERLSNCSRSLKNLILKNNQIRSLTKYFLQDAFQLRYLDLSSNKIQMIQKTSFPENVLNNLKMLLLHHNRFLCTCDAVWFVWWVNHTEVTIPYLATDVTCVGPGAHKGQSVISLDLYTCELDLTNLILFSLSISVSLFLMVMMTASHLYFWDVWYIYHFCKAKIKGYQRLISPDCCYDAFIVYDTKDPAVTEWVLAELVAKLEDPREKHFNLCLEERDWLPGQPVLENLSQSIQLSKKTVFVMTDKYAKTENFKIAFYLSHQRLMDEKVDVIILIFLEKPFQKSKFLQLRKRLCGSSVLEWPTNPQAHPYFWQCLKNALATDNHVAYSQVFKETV
The assay is described as follows: HEK293-Blue-hTLR-7 cells assay (SEAP reporter, R848 stimulation). The assay is classed as cell-based. To be noted: HEK293-Blue-hTLR7 cells, R848, 20 hrs; read-out: HEK/hTLR7 IC50. The method, boiled down: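 HEK293-Blue-hTLR7 cells (NF-κB/AP-1-driven SEAP reporter) were stimulated with R848 alongside serially diluted compound at 1% final DMSO for 20 h at 37 °C. Supernatant SEAP was then developed with QUANTI-Blue for 2 h at 37 °C and absorbance read at 620–655 nm; antagonism is measured as reduced reporter signal.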
Consider `[2H]c1ccc2c(N3C[C@H](CN4CCN(c5ncc(N6C[C@@H](N)[C@H](OC)C6)cc5C)CC4)O[C@H](C)C3)ccc(C#N)c2n1` [Example 142, 5-[(2S,6R)-2-[[4-[5-[(3R,4R)-3-amino-4-methoxy-pyrrolidin-1-yl]-3-methyl-2-pyridyl]piperazin-1-yl]methyl]-6-methyl-morpholin-4-yl]-2-deuterio-quinoline-8-carbonitrile], for which the IC50 turned out to be 20 nM.

As for `[2H]c1ccc2c(N3C[C@H](CN4CCN(c5ccc(N6C[C@@H](N)[C@H](OC)C6)nc5)CC4)O[C@H](C)C3)ccc(C#N)c2n1` [Example 143, 5-[(2S,6R)-2-[[4-[6-[(3R,4R)-3-amino-4-methoxy-pyrrolidin-1-yl]-3-pyridyl]piperazin-1-yl]methyl]-6-methyl-morpholin-4-yl]-2-deuterio-quinoline-8-carbonitrile], the IC50 amounted to 21 nM. In the case of `[2H]c1ccc2c(N3C[C@H](CN4CCN(c5nc(C)cc(N6C[C@@H](N)[C@H](OC)C6)n5)CC4)O[C@H](C)C3)ccc(C#N)c2n1` [Example 144, 5-[(2S,6R)-2-[[4-[4-[(3R,4R)-3-amino-4-methoxy-pyrrolidin-1-yl]-6-methyl-pyrimidin-2-yl]piperazin-1-yl]methyl]-6-methyl-morpholin-4-yl]-2-deuterio-quinoline-8-carbonitrile], the IC50 was 11 nM. Take `[2H]c1ccc2c(N3C[C@H](CN4CC(c5cnc(N6CC(C)(N)C6)cc5C)C4)O[C@H](C)C3)ccc(C#N)c2n1` [Example 145, 5-[(2S,6R)-2-[[3-[6-(3-amino-3-methyl-azetidin-1-yl)-4-methyl-3-pyridyl]azetidin-1-yl]methyl]-6-methyl-morpholin-4-yl]-2-deuterio-quinoline-8-carbonitrile]: the IC50 is 14 nM.

As for `[2H]c1ccc2c(N3C[C@H](CN4CC(c5cnc(N6C[C@@H](N)[C@H](OC)C6)cc5C)C4)O[C@H](C)C3)ccc(C#N)c2n1` [Example 146, 5-[(2S,6R)-2-[[3-[6-[(3R,4R)-3-amino-4-methoxy-pyrrolidin-1-yl]-4-methyl-3-pyridyl]azetidin-1-yl]methyl]-6-methyl-morpholin-4-yl]-2-deuterio-quinoline-8-carbonitrile], the IC50 came to 13 nM. For `[2H]c1ccc2c(N3C[C@H](CN4CCN(c5ccc(N6CC(C)(N)C6)c(C)n5)CC4)O[C@H](C)C3)ccc(C#N)c2n1` [Example 147, 5-[(2S,6R)-2-[[4-[5-(3-amino-3-methyl-azetidin-1-yl)-6-methyl-2-pyridyl]piperazin-1-yl]methyl]-6-methyl-morpholin-4-yl]-2-deuterio-quinoline-8-carbonitrile] the value was 53 nM; for `Cc1cc(N2CC(C)(N)C2)cnc1N1CCN(C[C@H]2CN(c3ccc(C#N)n4ncc(F)c34)C[C@@H](C)O2)CC1` [Example 148, 4-[(2S,6R)-2-[[4-[5-(3-amino-3-methyl-azetidin-1-yl)-3-methyl-2-pyridyl]piperazin-1-yl]methyl]-6-methyl-morpholin-4-yl]-3-fluoro-pyrazolo[1,5-a]pyridine-7-carbonitrile], 56 nM.

Turning to `[2H]c1ccc2c(N3C[C@H](CN4CC(c5ccc(N6C[C@@H](N)[C@H](OC)C6)nc5)C4)O[C@H](C)C3)ccc(C#N)c2n1` [Example 149, 5-[(2S,6R)-2-[[3-[6-[(3R,4R)-3-amino-4-methoxy-pyrrolidin-1-yl]-3-pyridyl]azetidin-1-yl]methyl]-6-methyl-morpholin-4-yl]-2-deuterio-quinoline-8-carbonitrile], the IC50 was found to be 16 nM. With `[2H]c1ccc2c(N3C[C@H](CN4CCN(c5ccc(N6C[C@H](N)[C@@H](F)C6)nc5)CC4)O[C@H](C)C3)ccc(C#N)c2n1` [Example 150, 5-[(2S,6R)-2-[[4-[6-[(3S,4S)-3-amino-4-fluoro-pyrrolidin-1-yl]-3-pyridyl]piperazin-1-yl]methyl]-6-methyl-morpholin-4-yl]-2-deuterio-quinoline-8-carbonitrile] the figure was 35 nM.
